Laboratory results taken from DBAASP.
≈ marks a conversion by molar mass, not a printed value.

Columns and labels:
Test in all cases: ≥ marks a high value that may be exact or a test limit, other limits are often not marked, values filed in µg/mL are converted to µM
[1] = system: Staphylococcus aureus JC-1
[2] = system: Shigella flexneri ATCC 203
[3] = system: Pseudomonas aeruginosa OT97
Bacillus megaterium Bm11 = system: Bacillus megaterium Bm11
[4] = system: Proteus vulgaris OX19 ATCC 6380
[5] = system: Staphylococcus aureus Cowan 1
Escherichia coli D21 = system: Escherichia coli D21
[6] = system: Bacillus subtilis ATCC 6633
Yersinia pestis = system: Yersinia pestis
Pseudomonas aeruginosa = system: Pseudomonas aeruginosa
Escherichia coli = system: Escherichia coli
Staphylococcus aureus MR = system: Staphylococcus aureus MR
Staphylococcus aureus = system: Staphylococcus aureus
[7] = system: Mycobacterium tuberculosis
Neisseria meningitidis = system: Neisseria meningitidis
Salmonella typhimurium = system: Salmonella typhimurium
Escherichia coli AB94012 = system: Escherichia coli AB94012
[8] = system: Bacillus subtilis AB91021
[9] = system: Staphylococcus aureus P1381
[10] = system: Pseudomonas aeruginosa AB93066
[11] = system: Staphylococcus aureus P969
[12] = system: Staphylococcus aureus P1383
Staphylococcus sp. = system: Staphylococcus sp.
[13] = system: Staphylococcus epidermidis P1389
[14] = system: Staphylococcus epidermidis P1111
[15] = system: Bacillus thuringiensis AB92037
[16] = system: Staphylococcus aureus P1374
[17] = system: Staphylococcus aureus P1369
[18] = system: Staphylococcus aureus AB94004
[19] = system: Staphylococcus epidermidis P1368
[20] = system: Staphylococcus aureus P1386
[21] = system: Staphylococcus aureus CIB 85462
[22] = system: Staphylococcus aureus ATCC 25923
[23] = system: Escherichia coli CIB 84492
[24] = system: Escherichia coli ATCC 25922
[25] = system: Pseudomonas aeruginosa 08031014
[26] = system: Staphylococcus aureus ATCC 43300
[27] = system: Pseudomonas aeruginosa ATCC 27853
Escherichia coli ML-35p = system: Escherichia coli ML-35p
[28] = system: Candida albicans ATCC 20032
[29] = system: Pseudomonas aeruginosa PAO1

How did the MIC [1] turn out when CC[C@H](C)[C@H](NC(=O)[C@H](CCCCN)NC(=O)[C@@H](NC(=O)[C@@H](NC(=O)[C@H](CCC(N)=O)NC(=O)CNC(=O)[C@H](Cc1cnc[nH]1)NC(=O)[C@H](CCC(N)=O)NC(=O)[C@H](CC(N)=O)NC(=O)[C@H](CCC(N)=O)NC(=O)[C@@H](N)C(C)C)C(C)C)C(C)C)C(=O)N[C@@H](Cc1ccccc1)C(=O)N[C@@H](Cc1cnc[nH]1)C(=O)N[C@@H](Cc1cnc[nH]1)C(=O)O [VQNQHGQVVKIFHH] was run?
Its MIC is no less than 3200 µM.

And the MIC [2]?
The MIC was no less than 4800 µM.

And the MIC [3]?
The MIC was no less than 6000 µM.

And the MIC (Bacillus megaterium Bm11)?
Its MIC is no less than 4800 µM.

What about the MIC [4] of the same molecule?
The MIC was no less than 6000 µM.

And the MIC [5]?
The MIC was no less than 6000 µM.

And the MIC (Escherichia coli D21)?
Its MIC is no less than 6000 µM.

What about the MIC [6] of the same molecule?
Its MIC is no less than 6000 µM.

For CC[C@H](C)[C@H](NC(=O)CNC(=O)CNC(=O)[C@H](CCSC)NC(=O)[C@H](CC(C)C)NC(=O)[C@H](CCC(=O)O)NC(=O)[C@H](CCCN=C(N)N)NC(=O)CNC(=O)[C@H](CCCN=C(N)N)NC(=O)[C@H](CCSC)NC(=O)CNC(=O)[C@@H](NC(=O)[C@H](CCCN=C(N)N)NC(=O)[C@H](CC(C)C)NC(=O)[C@@H](N)CS)[C@@H](C)CC)C(=O)NCC(=O)N[C@@H](CCCCN)C(=O)N[C@H](C(=O)N[C@@H](CCSC)C(=O)O)[C@@H](C)O [CLRIGMRGRELMGGIGKTM], which MIC (Yersinia pestis) is on record?
The MIC was no less than 144 µM.

What about the MIC (Pseudomonas aeruginosa) of the same molecule?
Its MIC is 144 µM (≈ 300 µg/mL).

What about the MIC (Escherichia coli) of the same molecule?
Its MIC is 144 µM (≈ 300 µg/mL).

What about the MIC (Staphylococcus aureus MR) of the same molecule?
The MIC was no less than 144 µM.

What about the MIC (Staphylococcus aureus) of the same molecule?
Its MIC is 144 µM (≈ 300 µg/mL).

And the MIC [7]?
The MIC was no less than 144 µM.

And the MIC (Neisseria meningitidis)?
Its MIC is no less than 144 µM.

And the MIC (Salmonella typhimurium)?
Its MIC is no less than 144 µM.

Which MIC (Escherichia coli AB94012) does the source give for CC[C@H](C)[C@H](NC(=O)[C@H](CC(C)C)NC(=O)[C@H](CO)NC(=O)[C@H](CCCCN)NC(=O)[C@@H](NC(=O)[C@H](CC(C)C)NC(=O)[C@H](CCCN=C(N)N)NC(=O)[C@H](Cc1ccccc1)NC(=O)[C@@H](N)CC(C)C)[C@@H](C)CC)C(=O)N[C@@H](CCCCN)C(=O)N[C@@H](CCCN=C(N)N)C(=O)N[C@@H](CC(C)C)C(=O)N[C@H](C(=O)N[C@@H](CO)C(=O)N[C@@H](C)C(=O)N[C@@H](Cc1ccccc1)C(=O)N[C@@H](CCCCN)C(N)=O)C(C)C [LFRLIKSLIKRLVSAFK] here?
The MIC was 6.15 µM (≈ 12.5 µg/mL).

What about the MIC [8] of the same molecule?
The MIC was 12.3 µM (≈ 25 µg/mL).

And the MIC [9]?
The MIC was 9.84 µM (≈ 20 µg/mL).

What about the MIC [10] of the same molecule?
Its MIC is no less than 49.2 µM.

And the MIC [11]?
Its MIC is 19.7 µM (≈ 40 µg/mL).

And the MIC [12]?
The MIC was 4.92 µM (≈ 10 µg/mL).

What about the MIC (Staphylococcus sp.) of the same molecule?
Its MIC is 2.46 µM (≈ 5 µg/mL).

What about the MIC [13] of the same molecule?
Its MIC is 3.94 µM (≈ 8 µg/mL).

What about the MIC [14] of the same molecule?
Its MIC is 9.84 µM (≈ 20 µg/mL).

And the MIC [15]?
The MIC was 12.3 µM (≈ 25 µg/mL).

What about the MIC [16] of the same molecule?
The MIC was 3.94 µM (≈ 8 µg/mL).

And the MIC [17]?
Its MIC is 3.94 µM (≈ 8 µg/mL).

What about the MIC [18] of the same molecule?
The MIC was 2.46 µM (≈ 5 µg/mL).

And the MIC [19]?
The MIC was 3.94 µM (≈ 8 µg/mL).

And the MIC [20]?
The MIC was 12.3 µM (≈ 25 µg/mL).

Which results are given for CC[C@H](C)[C@@H]1NC(=O)[C@H](CC(C)C)NC(=O)[C@@H](NC(=O)[C@H](Cc2ccccc2)NC(=O)[C@@H](NC(=O)[C@@H](NC(=O)[C@@H]2CCCN2C(=O)[C@@H](NC(=O)[C@@H](NC(=O)[C@H](CCCCN)NC(=O)[C@H](C)NC(=O)[C@H](C)NC(=O)[C@@H](NC(=O)[C@H](CCCN=C(N)N)NC(=O)[C@H](CC(C)C)NC(=O)[C@@H](NC(=O)[C@H](C)NC(=O)[C@@H]2CCCN2C(=O)[C@H](CC(C)C)NC(=O)[C@@H](N)Cc2ccccc2)C(C)C)C(C)C)C(C)C)C(C)C)[C@@H](C)O)C(C)C)CSSC[C@@H](C(=O)O)NC(=O)[C@H](CCCCN)NC(=O)[C@H](CCCCN)NC(=O)[C@H](CO)NC1=O [FLPAVLRVAAKVVPTVFCLISKKC]?
MIC [21]: 3.07 µM (≈ 7.99 µg/mL); MIC [22]: 6.15 µM (≈ 16 µg/mL); MIC [23]: 24.6 µM (≈ 64 µg/mL); MIC [24]: 49.2 µM (≈ 128 µg/mL)

CC[C@H](C)[C@H](NC(=O)[C@H](CCCCN)NC(=O)[C@@H](NC(=O)[C@H](Cc1c[nH]c2ccccc12)NC(=O)[C@H](CS)NC(=O)[C@H](CCCNC(=N)N)NC(=O)[C@@H]1CCCN1C(=O)[C@H](CCCNC(=N)N)NC(=O)[C@H](CC(C)C)NC(=O)[C@H](CO)NC(=O)[C@@H](N)CCCCN)[C@@H](C)CC)C(=O)N[C@@H](CCCCN)C(=O)N[C@@H](Cc1ccccc1)C(=O)N[C@@H](CCCNC(=N)N)C(=O)N[C@@H](CS)C(=O)N[C@@H](CCCCN)C(=O)N[C@@H](CO)C(=O)N[C@@H](CC(C)C)C(=O)N[C@@H](CCCCN)C(=O)N[C@@H](Cc1ccccc1)C(=O)O [KSLRPRCWIKIKFRCKSLKF] was tested. Which MIC [25] did it give?
The MIC was 14.8 µM (≈ 37.5 µg/mL).

What about the MIC (Escherichia coli) of the same molecule?
The MIC was 20.9 µM (≈ 53 µg/mL).

What about the MIC [22] of the same molecule?
Its MIC is 3.7 µM (≈ 9.38 µg/mL).

What about the MIC [26] of the same molecule?
Its MIC is 3.7 µM (≈ 9.38 µg/mL).

What about the MIC [24] of the same molecule?
The MIC was 7.39 µM (≈ 18.8 µg/mL).

What about the MIC [27] of the same molecule?
The MIC was 3.7 µM (≈ 9.38 µg/mL).

What about the MIC (Escherichia coli ML-35p) of the same molecule?
Its MIC is 7.39 µM (≈ 18.8 µg/mL).

What about the MIC [28] of the same molecule?
The MIC was 3.7 µM (≈ 9.38 µg/mL).

What about the MIC [29] of the same molecule?
The MIC was 3.7 µM (≈ 9.38 µg/mL).

What about the MIC [6] of the same molecule?
The MIC was no less than 39.4 µM.
